# Measurements taken from ChEMBL document CHEMBL1201862, “PubChem BioAssay data set” (2004).
# The source made the active and inactive calls.
# Experiments:
# [1] = Luminescence Cell-Based Dose Retest to Confirm Inhibitors of Cancer Stem Cells. [Related pubchem assays (depositor defined):AID2717, AID2721]; format: functional; conditions: Homo sapiens
# Escherichia coli = assay: microbe, parasite or virus in culture
# [2] = cytotoxicity toward DRD oncogenic fibroblasts, dose response, cell-based, non-viral oncogenic, luminescence (AID 1934); format: functional; conditions: Homo sapiens
# [3] = target: T1, Heat shock factor protein 1 (Mus musculus, UniProt P38532); assay: inhibition of MG132-induced HSE-luciferase signal, confirmation, cell-based, NIH3T3, luminescence, dose retest (AID 2382); format: functional;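 also: NIH3T3 fibroblasts with HSF1-driven luciferase reporter stressed by proteasome inhibitor MG132; luminescence from HSF1-driven luciferase expression after 8 hours of MG132 stress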
# T1 sequence (P38532 whole entry): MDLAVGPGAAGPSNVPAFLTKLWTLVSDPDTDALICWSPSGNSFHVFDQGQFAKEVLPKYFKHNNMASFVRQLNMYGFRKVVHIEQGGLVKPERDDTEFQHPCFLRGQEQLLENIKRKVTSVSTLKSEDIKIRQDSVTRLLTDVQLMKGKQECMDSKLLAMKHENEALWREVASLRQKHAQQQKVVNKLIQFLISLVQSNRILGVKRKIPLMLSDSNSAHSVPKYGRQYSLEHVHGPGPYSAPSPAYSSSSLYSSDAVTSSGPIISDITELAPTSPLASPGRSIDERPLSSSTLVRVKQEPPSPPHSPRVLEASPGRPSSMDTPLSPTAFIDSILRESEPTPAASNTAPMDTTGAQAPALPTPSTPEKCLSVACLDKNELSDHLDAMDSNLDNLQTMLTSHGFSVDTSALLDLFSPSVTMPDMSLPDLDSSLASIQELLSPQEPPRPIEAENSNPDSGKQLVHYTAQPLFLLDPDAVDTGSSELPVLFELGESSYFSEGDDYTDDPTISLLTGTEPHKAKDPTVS
# BJ [4] = assay: cytotoxicity toward BJ-TERT-LT-ST fibroblasts, dose response, cell-based, RAS-independent, luminescence (AID 1935); format: functional; conditions: Homo sapiens;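 also: BJ fibroblasts immortalized with TERT plus LT and ST oncogenes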
# BJ [5] = assay: cytotoxicity toward BJ-TERT fibroblasts, dose response, cell-based, RAS-independent, luminescence (AID 1933); format: functional; conditions: Homo sapiens
# BJ [6] = assay: cells; format: functional, cell-based; conditions: Homo sapiens
# A-375 = assay: MITF: Counter assay: A375 proliferation Measured in Cell-Based System Using Plate Reader - 2084-03_Inhibitor_Dose_DryPowder_Activity. [Related pubchem assays (depositor defined):AID488944]; format: functional; conditions: Homo sapiens
# [7] = target: T2, Microphthalmia-associated transcription factor (Homo sapiens, UniProt O75030); assay: TRPM1 promoter luciferase signal decrease, dose response, MITF inhibitor project, cell-based, SK-MEL-5, cherry-picked, set 3 (AID 493073); format: functional
# T2 sequence (O75030 whole entry): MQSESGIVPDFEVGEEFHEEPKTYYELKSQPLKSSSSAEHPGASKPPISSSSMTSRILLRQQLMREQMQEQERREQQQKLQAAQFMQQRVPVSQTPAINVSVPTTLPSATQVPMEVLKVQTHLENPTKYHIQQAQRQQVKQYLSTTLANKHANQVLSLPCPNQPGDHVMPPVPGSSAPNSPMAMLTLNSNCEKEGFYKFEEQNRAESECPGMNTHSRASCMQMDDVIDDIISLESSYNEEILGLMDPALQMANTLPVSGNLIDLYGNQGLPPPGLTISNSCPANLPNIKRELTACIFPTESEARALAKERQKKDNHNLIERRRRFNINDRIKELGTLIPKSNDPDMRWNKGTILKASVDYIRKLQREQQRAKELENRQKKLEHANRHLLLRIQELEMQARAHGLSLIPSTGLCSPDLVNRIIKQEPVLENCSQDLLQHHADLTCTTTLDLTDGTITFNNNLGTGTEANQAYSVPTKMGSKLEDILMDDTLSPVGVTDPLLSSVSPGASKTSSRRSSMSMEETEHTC
# X-box-binding protein 1 = target: T3, X-box-binding protein 1 (Homo sapiens, UniProt P17861); format: functional, Cricetulus griseus;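 also: confirmatory dose-response counter-screen serving a CHOP assay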
# T3 sequence (P17861 whole entry): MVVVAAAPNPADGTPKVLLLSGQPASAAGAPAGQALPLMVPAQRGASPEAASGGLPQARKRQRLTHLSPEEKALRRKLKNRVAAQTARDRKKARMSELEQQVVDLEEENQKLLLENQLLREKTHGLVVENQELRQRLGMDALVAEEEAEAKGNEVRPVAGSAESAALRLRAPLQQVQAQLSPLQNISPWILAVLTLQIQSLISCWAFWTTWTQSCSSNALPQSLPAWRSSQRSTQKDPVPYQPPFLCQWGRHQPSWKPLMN
# [8] = target: DNA damage-inducible transcript 3 protein (Mus musculus, UniProt P35639); format: functional, Cricetulus griseus
# [9] = target: T4, Endoribonuclease toxin MazF (Escherichia coli K-12, UniProt P0AE70); assay: MazF toxin RNase activators, dose response, biochemical, fluorescence, single-stranded RNA substrate, uHTS hits (AID 588481); format: functional
# [10] = target: T4, Endoribonuclease toxin MazF; assay: fluorescent RNA oligo signal without MazF, dose response, counter-screen for MazEF activator project, biochemical, fluorescence, single-stranded RNase substrate (AID 588502); format: functional
# Trypsin = Trypsin (Sus scrofa, UniProt P00761); assay: porcine trypsin inhibitors, dose response, selectivity assay for Rce1 protease inhibitor project, biochemical, quenched peptide fluorescence, cherry-pick (AID 488789)
# CAAX prenyl protease 2 [11] = target: CAAX prenyl protease 2 (Saccharomyces cerevisiae S288c, UniProt Q03530); format: biochemical
# CAAX prenyl protease 2 [12] = target: CAAX prenyl protease 2 (Homo sapiens, UniProt Q9Y256); assay: human Rce1 protease inhibitors, dose response, biochemical, yeast membranes, quenched-peptide fluorescence, cherry-pick (AID 588849)
# Sequence of CAAX prenyl protease 2 (Homo sapiens, UniProt Q9Y256) (Q9Y256 whole entry): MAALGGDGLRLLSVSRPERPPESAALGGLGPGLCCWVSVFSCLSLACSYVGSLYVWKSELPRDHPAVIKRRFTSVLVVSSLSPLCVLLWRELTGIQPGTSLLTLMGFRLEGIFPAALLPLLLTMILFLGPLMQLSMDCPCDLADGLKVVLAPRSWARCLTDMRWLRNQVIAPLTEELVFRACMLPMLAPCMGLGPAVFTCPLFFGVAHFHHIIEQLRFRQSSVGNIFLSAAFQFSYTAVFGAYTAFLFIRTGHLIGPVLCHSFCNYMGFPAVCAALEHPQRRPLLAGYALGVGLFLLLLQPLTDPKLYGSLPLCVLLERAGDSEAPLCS
# T4 sequence (P0AE70 whole entry): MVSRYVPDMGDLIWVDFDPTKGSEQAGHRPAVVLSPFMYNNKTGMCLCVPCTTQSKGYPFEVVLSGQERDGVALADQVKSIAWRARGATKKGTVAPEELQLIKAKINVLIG
# Sequence of CAAX prenyl protease 2 (Saccharomyces cerevisiae S288c, UniProt Q03530) (Q03530 whole entry): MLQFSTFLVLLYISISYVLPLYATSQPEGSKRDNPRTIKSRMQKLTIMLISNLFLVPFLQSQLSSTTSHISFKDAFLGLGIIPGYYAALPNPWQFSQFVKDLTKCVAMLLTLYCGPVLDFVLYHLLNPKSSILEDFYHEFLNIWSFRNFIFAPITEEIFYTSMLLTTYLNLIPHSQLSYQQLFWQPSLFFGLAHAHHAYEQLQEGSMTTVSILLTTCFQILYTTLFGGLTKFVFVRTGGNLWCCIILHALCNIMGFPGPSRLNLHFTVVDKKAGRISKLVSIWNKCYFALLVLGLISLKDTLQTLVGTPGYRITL
# Sequence of DNA damage-inducible transcript 3 protein (P35639 whole entry): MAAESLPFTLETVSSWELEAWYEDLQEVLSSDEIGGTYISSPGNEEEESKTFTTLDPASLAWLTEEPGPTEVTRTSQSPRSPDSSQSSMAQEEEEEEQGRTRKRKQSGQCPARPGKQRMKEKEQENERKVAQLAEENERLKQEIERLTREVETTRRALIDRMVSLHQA
# Sequence of Trypsin (P00761 whole entry): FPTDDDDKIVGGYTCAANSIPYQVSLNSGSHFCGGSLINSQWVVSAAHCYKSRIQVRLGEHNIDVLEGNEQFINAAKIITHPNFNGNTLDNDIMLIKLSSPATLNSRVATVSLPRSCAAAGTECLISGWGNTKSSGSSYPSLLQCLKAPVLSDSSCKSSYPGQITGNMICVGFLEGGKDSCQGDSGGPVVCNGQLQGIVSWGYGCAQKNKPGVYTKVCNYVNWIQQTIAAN
structure (smiles),measurement,setting,value
COc1ccc(-c2cc([C@H]3[C@@H]4C=CCC[C@@]4(C)C(=O)N3Cc3ccccc3)ccc2F)cc1,AC50,[1],3.42 µM (active)
same,AC50,Escherichia coli,121 µM (active)
O=C(N/N=C/c1ccccc1Cl)c1[nH]nc2c1CCCC2,EC50,[2],15.8 µM (active)
same,EC50,[3],16 µM (active)
same,EC50,BJ [4],> 150 µM (inconclusive)
same,EC50,BJ [5],16.4 µM (active)
same,EC50,BJ [6],18.2 µM (active)
same,AC50,A-375,48.5 µM (active)
same,AC50,[7],7.97 µM (active)
same,Absolute IC50 (XBP1),X-box-binding protein 1,10 µM
same,Absolute IC50 (CHOP),[8],10 µM
C=CCn1c(=N)c(S(=O)(=O)c2ccc(C)c(C)c2)cc2c(=O)n3ccccc3nc21,EC50,[9],31.9 µM (inactive)
same,EC50,[10],52.2 µM (inactive)
CCN(CC)c1ccc(/C=N/NC(=S)NCc2ccc(OC)cc2)cc1,AC50,Trypsin,7.25 µM (active)
same,AC50,CAAX prenyl protease 2 [11],24.8 µM (active)
same,AC50,CAAX prenyl protease 2 [12],13.6 µM (active)
